Measured values as given in US7094801B2, “Chalcone derivatives and their use to treat diseases” (Atherogenics, Inc., priority 2001, dated 2006).

Columns and labels:
VCAM-1 = assay: In Vitro VCAM-1 Assay (TNF-α stimulated HAEC or HPAEC, cell ELISA); assay type: cell-based, human; details: Homo sapiens, 16 h, TNF-α (1 ng/ml) stimulated HAEC or HPAEC, approximately 16 hours
Protocol: Cell Culture and compound dosing: Cultured primary human aortic (HAEC) or pulmonary (HPAEC) endothelial cells were obtained from Clonetics, Inc., and were used below passage 9. Cells were seeded in 96 well plates such that they would reach 90–95% confluency by the following day. On the following day the cells were stimulated with TNF-α (1 ng/ml) in the presence or absence of compounds dissolved in DMSO such that the final concentration of DMSO is 0.25% or less. To establish a dose curve for each compound, four concentrations in 2- to 5-fold increments were used. Cells were exposed to TNF-α and compounds for approximately 16 hours. The next day the cells were examined under microscope to score for visual signs of toxicity or cell stress.
Following 16 hr exposure to TNF-α and compound the media was discarded and the cells were washed once with Hanks Balanced Salt Solution (HBSS)/Phosphate buffered saline (PBS) (1:1). Primary antibodies against VCAM-1 (0.25 μg/ml in HBSS/PBS+5% FBS) were added and incubated for 30–60 minutes at 37° C. Cells were washed with HBSS/PBS three times, and secondary antibody Horse Radish Peroxidase (HRP)-conjugated goat anti-mouse IgG (1:500 in HBSS/PBS+5% FBS) were added and incubated for 30 minutes at 37° C. Cells were washed with HBSS/PBS four time and TMB substrate were added and incubated at room temperature in the dark until there was adequate development of blue color. The length of time of incubation was typically 5–15 minutes. 2N sulfuric acid was added to stop the color development and the data was collected by reading the absorbance on a BioRad ELISA plate reader at OD 450 nm. The results are expressed as IC50 values (the concentration (micromolar) of compound required to inhibit 50% of the maximal response of the control sample stimulated by TNF-α only).

Row | IC50 (VCAM-1) [µM] | melting point | Compound
1 | < 5 | 195 to 196 °C | COc1ccc(-c2cccs2)cc1/C=C/C(=O)c1ccc(C(=O)O)cc1 [Example 45, 4-[3E-(2-Methoxy-5-thiophen-2-yl-phenyl)-acryloyl]-benzoic acid]
2 | < 1 | > 240 °C (dec.) | COc1cc(OC)c(-c2cc3ccccc3s2)cc1/C=C/C(=O)c1ccc(S(=O)(=O)NC(=O)C(C)C)cc1 [Example 87, 4-[3E-(5-Benzo[b]thiophen-2-yl-2,4-dimethoxy-phenyl)-acryloyl]-N-isobutyryl-benzenesulfonamide]
3 | < 10 | 228 to 229 °C | COc1cc(OCC(=O)N(C)C)c(/C=C/C(=O)c2ccc(C(=O)O)cc2)cc1-c1cccs1 [Example 67, 4-[3E-(2-Dimethylcarbamoylmethoxy-4-methoxy-5-thiophen-2-yl-phenyl)-acryloyl]-benzoic acid]
4 | < 5 | 188 to 189 °C | COc1cc(OCc2ccccn2)c(/C=C/C(=O)c2ccc(S(N)(=O)=O)cc2)cc1-c1cccs1 [Example 114, 4-{3E-[4-Methoxy-2-(pyridin-2-ylmethoxy)-5-thiophen-2-yl-phenyl]-acryloyl}-benzenesulfonamide]
5 | > 10 | 197 to 200 °C | COc1cc(OC(C)(C)C(=O)O)c(-c2cccs2)cc1/C=C/C(=O)c1ccc(N(C)S(C)(=O)=O)cc1 [Example 101, 2-(4-{3-[4-(Methanesulfonyl-methyl-amino)-phenyl]-3-oxo-E-propenyl}-5-methoxy-2-thiophen-2-yl-phenoxy)-2-methyl-propionic acid]
6 | < 1 | 120 to 122 °C | COc1cc(OC)c(-c2cc3ccccc3n2C(=O)OC(C)(C)C)cc1/C=C/C(=O)c1ccc(S(N)(=O)=O)cc1 [Example 83, 2-{2,4-Dimethoxy-5-[3-oxo-3-(4-aminosulfonyl-phenyl)-E-propenyl]-phenyl}-indole-1-carboxylic acid tert-butyl ester]
7 | < 5 | 179 to 182 °C | COc1cc(OC)c(-c2cccs2)cc1/C=C/C(=O)c1cccc(C(=O)O)c1 [Example 43, 3-[3E-(2,4-Dimethoxy-5-thiophen-2-yl-phenyl)-acryloyl]-benzoic acid]
8 | > 10 | 135 to 137 °C | COc1cc(OC(C)(C)C(=O)O)c(-c2cccs2)cc1/C=C/C(=O)c1ccc(C(=O)O)cc1 [Example 47, 4-{3E-[4-(1-Carboxy-1-methyl-ethoxy)-2-methoxy-5-thiophen-2-yl-phenyl]-acryloyl}-benzoic acid]
9 | < 1 | 71 to 75 °C | COc1cc(/C=C/C(=O)c2ccc(NS(C)(=O)=O)cc2)cc(-c2cccs2)c1OC [Example 14, N-{4-[3E-(3,4-Dimethoxy-5-thiophen-2-yl-phenyl)-acryloyl]-phenyl}-methanesulfonamide]
10 | > 10 | 181 to 183 °C | COc1cc(OC(C)(C)C(=O)O)c(-c2cccs2)cc1/C=C/C(=O)c1ccc(NS(C)(=O)=O)cc1 [Example 100, 2-{4-[3-(4-Methanesulfonylamino-phenyl)-3-oxo-E-propenyl]-5-methoxy-2-thiophen-2-yl-phenoxy}-2-methyl-propionic acid]
11 | > 10 | > 260 °C | COc1cc(OC)c(-c2cncnc2)cc1/C=C/C(=O)c1ccc(C(=O)O)cc1 [Example 31, 4-[3E-(2,4-Dimethoxy-5-pyrimidin-5-yl-phenyl)-acryloyl]-benzoic acid]
12 | < 1 |  | COc1cc(OC)c(-c2cc3ccccc3s2)cc1/C=C\C(=O)c1ccc(C(=O)O)cc1 [Example 79, 4-[3Z-(5-Benzo[b]thien-2-yl-2,4-dimethoxyphenyl)-acryloyl]-benzoic acid]

Further lines, the compound ahead of its results:

Row | Compound | IC50 (VCAM-1) [µM] | melting point
13 | CCOC(=O)CNC(=O)Nc1ccc(C(=O)/C=C/c2ccc(-c3cccs3)cc2)cc1 [Example 15, (3-{4-[3E-(4-Thiophen-2-yl-phenyl)-acryloyl]-phenyl}-ureido)-acetic acid ethyl ester] | > 10 | 209 to 212 °C
14 | O=C(O)c1ccc(C(=O)/C=C/c2ccc(N3CCCC3)c(-c3cccs3)c2)cc1 [Example 20, 4-[3E-(4-Pyrrolidin-1-yl-3-thiophen-2-yl-phenyl)-acryloyl]-benzoic acid] | > 10 | 212 to 214 °C (dec.)
15 | COc1cc(OCCCN2CCOCC2)c(/C=C/C(=O)c2ccc(C(N)=O)cc2)cc1-c1cccs1 [Example 94, 4-{3E-[4-Methoxy-2-(3-morpholin4-yl-propoxy)-5-thiophen-2-yl-phenyl]-acryloyl}-benzamide] | < 1 | 81 to 83 °C
16 | COc1cc(OC)c(-c2cn[nH]c2)cc1/C=C/C(=O)c1ccc(C(=O)O)cc1 [Example 74, 4-{3E-[2,4-Dimethoxy-5-(1H-pyrazol-4-yl)-phenyl]-acryloyl}-benzoic acid] | > 10 | > 250 °C
17 | COc1cc(OCCN2CCOCC2)c(/C=C/C(=O)c2ccc(C(N)=O)cc2)cc1-c1cccs1 [Example 92, 4-{3E-[4-Methoxy-2-(2-morpholin-4-yl-ethoxy)-5-thiophen-2-yl-phenyl]-acryloyl}-benzamide] | < 1 | 183 to 184 °C
18 | COc1ccc(/C=C/C(=O)c2ccccc2C(=O)O)cc1-c1cccs1 [Example 48, 2-[3E-(4-Methoxy-3-thiophen-2-yl-phenyl)-acryloyl]-benzoic acid] | < 10 | 79 to 81 °C
19 | O=C(O)c1ccc(C(=O)/C=C/c2ccc(-c3nccs3)cc2)cc1 [Example 5, 4-[3E-(4-Thiazol-2-yl-phenyl)acryloyl]-benzoic acid] | < 1 | 232 to 235 °C
20 | COc1cc(OC)c(-c2cnccn2)cc1/C=C/C(=O)c1ccc(C(=O)O)cc1 [Example 46, 4-[3E-(2,4-Dimethoxy-5-pyrazin-2-yl-phenyl)-acryloyl]-benzoic acid] | < 10 | 238 °C (dec.)
21 | O=C(O)c1ccc(C(=O)/C=C/c2cccc(-c3cccs3)c2)cc1 [Example 42, 4-[3E-(3-Thiophen-2-yl-phenyl)-acryloyl]-benzoic acid] | < 5 | 238 °C (dec.)
22 | COc1cc(/C=C/C(=O)c2ccc3c(c2)OC(CO)(CO)O3)cc(-c2cccs2)c1OC [Example 1, 1-(2,2-Bis-hydroxymethyl-benzo[1,3]dioxol-5-yl)-3E-(3,4-dimethoxy-5-thiophen-2-yl-phenyl)-propenone] | < 1 | 74 to 80 °C
23 | Cl.O=C(O)c1ccc(C(=O)/C=C/c2cc(-c3cccs3)ccc2OCCCN2CCOCC2)cc1 [Example 65, 4-{3E-[2-(3-Morpholin-4yl-propoxy)-5-thiophen-2-yl-phenyl]-acryloyl}-benzoic acid, hydrochloride] | < 1 | 234 to 236 °C
24 | O=C(/C=C/c1ccc(-c2cccs2)cc1)c1ccc(S)cc1 [Example 22, 1-(4-Mercapto-phenyl)-3E-(4-thiophen-2-yl-phenyl)-propenone] | > 10 | > 110 °C (dec.)
25 | COc1cc(OC)c(-c2cc3ccccc3s2)cc1/C=C/C(=O)c1ccc(C(C)=O)cc1 [Example 108, 1-(4-Acetyl-phenyl)-3E-(5-benzo[b]thiophen-2-yl-2,4-dimethoxy-phenyl)-propenone] | < 10 | 165 to 167 °C
26 | O=C(/C=C/c1ccc(-c2cccs2)cc1)c1ccc2c(c1)OC(CO)(CO)O2 [Example 2, 1-(2,2-Bis-hydroxymethyl-benzo[1,3]dioxol-5-yl)-3E-(4-thiophen-2-yl-phenyl)-propenone] | < 5 | 166 to 168 °C
27 | COc1cc(OC)c(-c2cc3ccccc3s2)cc1/C=C/C(=O)c1ccc(C(=O)NC(=O)C(C)C)cc1 [Example 96, 4-[3E-(5-Benzo[b]thiophen-2-yl-2,4-dimethoxy-phenyl)-acryloyl]-N-isobutyryl-benzamide] | < 5 | 208 to 209 °C
28 | COc1ncc(-c2cc(/C=C/C(=O)c3ccc(C(=O)O)cc3)c(OC)cc2OC)c(OC)n1 [Example 38, 4-{3E-[5-(2,4-Dimethoxy-pyrimidin-5-yl)-2,4-dimethoxy-phenyl]-acryloyl}-benzoic acid] | < 10 | 203 to 205 °C
29 | COc1cc(/C=C/C(=O)c2ccc3[nH]ccc3c2)cc(-c2cccs2)c1OC [Example 27, 3E-(3,4-Dimethoxy-5-thiophen-2-yl-phenyl)-1-(1H-indol-5-yl)-propenone] | < 5 | 184.5 to 186 °C
30 | COc1cc(OC)c(-c2cc3ccccc3s2)cc1/C=C/C(=O)c1ccc(N)cc1 [Example 13, 1-(4-Amino-phenyl)-3E-(5-benzo[b]thiophen-2-yl-2,4-dimethoxy-phenyl)-propenone] | < 5 | 98 to 104 °C
31 | COc1cc(OC)c(-c2cc3ccccc3s2)cc1/C=C/C(=O)c1ccc(SCC(=O)O)cc1 [Example 23, {4-[3E-(5-Benzo[b]thiophen-2-yl-2,4-dimethoxy-phenyl)-acryloyl]-phenylthio}-acetic acid] | < 1 | 
